Experimental data as given in PubChem BioAssay AID248 (DTP/NCI, 2004).
Values joined by “and” are separate entries in the source; they are usually repeats but may differ in a detail not shown here. Identical values can stand only once. Inconclusive results and toxic doses are left out. No stated cut-off is given here; in the data, active means T/C of 150% or more; inactive means T/C below 125%.

Test system: L1210 leukemia ip in BDF1 mice, survival T/C
Test: NCI In Vivo Anticancer Drug Screen. Data for tumor model L1210 Leukemia (intraperitoneal) in B6D2F1 (BDF1) mice
Settings: higher = longer survival
How it was run: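 Transplanted-tumor mice were given test agent; controls received vehicle only. Survival readings from the two groups were divided (treated over control).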

Measured: T/C

O=NN(CCCl)C(=O)NCCCl
inactive: endpoint: mean survival time, dose: 0.09 mg/kg/injection, schedule: Q01DX009 (ip), vehicle: saline 96 % of control | endpoint: mean survival time, dose: 0.09 mg/kg/injection, schedule: Q01DX009 (oral), vehicle: saline 100 % of control | endpoint: mean survival time, dose: 0.09 mg/kg/injection, schedule: Q## X024 (oral), vehicle: saline 102 % of control | endpoint: mean survival time, dose: 0.18 mg/kg/injection, schedule: Q01DX005 (ip), vehicle: saline 94 % of control | endpoint: mean survival time, dose: 0.18 mg/kg/injection, schedule: Q01DX009 (ip), vehicle: saline 101 % of control | endpoint: mean survival time, dose: 0.18 mg/kg/injection, schedule: Q01DX009 (oral), vehicle: saline 102 % of control | endpoint: mean survival time, dose: 0.18 mg/kg/injection, schedule: Q## X008 (ip), vehicle: saline 102 % of control | endpoint: mean survival time, dose: 0.18 mg/kg/injection, schedule: Q## X024 (oral), vehicle: saline 98 % of control | endpoint: mean survival time, dose: 0.32 mg/kg/injection, schedule: Q01DX001 (ip), vehicle: other 98 % of control | endpoint: mean survival time, dose: 0.36 mg/kg/injection, schedule: Q01DX Z (ip), vehicle: carboxymethylcellulose (CMC) 104 % of control | endpoint: mean survival time, dose: 0.37 mg/kg/injection, schedule: Q01DX001 (ip), vehicle: saline 104 % of control | endpoint: mean survival time, dose: 0.37 mg/kg/injection, schedule: Q01DX005 (ip), vehicle: saline 103 % of control | endpoint: mean survival time, dose: 0.37 mg/kg/injection, schedule: Q01DX005 (oral), vehicle: saline 93 % of control | endpoint: mean survival time, dose: 0.37 mg/kg/injection, schedule: Q01DX009 (ip), vehicle: saline 101 % of control | endpoint: mean survival time, dose: 0.37 mg/kg/injection, schedule: Q01DX009 (oral), vehicle: saline 97 % of control | endpoint: mean survival time, dose: 0.37 mg/kg/injection, schedule: Q01DX009 (sc), vehicle: saline 97 % of control | endpoint: mean survival time, dose: 0.37 mg/kg/injection, schedule: Q01DX015 (ip), vehicle: saline 115 % of control | endpoint: mean survival time, dose: 0.37 mg/kg/injection, schedule: Q## X003 (ip), vehicle: saline 107 % of control | endpoint: mean survival time, dose: 0.37 mg/kg/injection, schedule: Q## X008 (ip), vehicle: saline 109 % of control | endpoint: mean survival time, dose: 0.37 mg/kg/injection, schedule: Q## X024 (ip), vehicle: saline 110 % of control | endpoint: mean survival time, dose: 0.37 mg/kg/injection, schedule: Q## X024 (oral), vehicle: saline 100 % of control | endpoint: mean survival time, dose: 0.45 mg/kg/injection, schedule: Q01DX009 (ip), vehicle: saline + alcohol 99 % of control and 107 % of control | endpoint: mean survival time, dose: 0.63 mg/kg/injection, schedule: Q01DX001 (ip), vehicle: other 107 % of control | endpoint: mean survival time, dose: 0.73 mg/kg/injection, schedule: Q01DX Z (ip), vehicle: carboxymethylcellulose (CMC) 107 % of control | endpoint: mean survival time, dose: 0.75 mg/kg/injection, schedule: Q01DX001 (ip), vehicle: saline 105 % of control | endpoint: mean survival time, dose: 0.75 mg/kg/injection, schedule: Q01DX001 (sc), vehicle: saline 105 % of control | endpoint: mean survival time, dose: 0.75 mg/kg/injection, schedule: Q01DX005 (ip), vehicle: saline 108 % of control | endpoint: mean survival time, dose: 0.75 mg/kg/injection, schedule: Q01DX005 (oral), vehicle: saline 101 % of control | endpoint: mean survival time, dose: 0.75 mg/kg/injection, schedule: Q01DX009 (oral), vehicle: saline 116 % of control | endpoint: mean survival time, dose: 0.75 mg/kg/injection, schedule: Q01DX009 (sc), vehicle: saline 104 % of control | endpoint: mean survival time, dose: 0.75 mg/kg/injection, schedule: Q## X003 (ip), vehicle: saline 108 % of control | endpoint: mean survival time, dose: 0.75 mg/kg/injection, schedule: Q## X008 (ip), vehicle: saline 114 % of control | endpoint: mean survival time, dose: 0.75 mg/kg/injection, schedule: Q## X024 (oral), vehicle: saline 113 % of control | endpoint: mean survival time, dose: 1.0 mg/kg/injection, schedule: Q01DX Z (oral), vehicle: saline 117 % of control | endpoint: mean survival time, dose: 1.0 mg/kg/injection, schedule: Q04DX002 (ip), vehicle: saline + alcohol 105 % of control and 107 % of control | endpoint: mean survival time, dose: 1.0 mg/kg/injection, schedule: Q04DX004 (ip), vehicle: saline 106 % of control | endpoint: mean survival time, dose: 1.25 mg/kg/injection, schedule: Q01DX001 (ip), vehicle: other 101 % of control | endpoint: mean survival time, dose: 1.5 mg/kg/injection, schedule: Q01DX001 (ip), vehicle: saline 107 % of control | endpoint: mean survival time, dose: 1.5 mg/kg/injection, schedule: Q01DX001 (sc), vehicle: saline 107 % of control | endpoint: mean survival time, dose: 1.5 mg/kg/injection, schedule: Q01DX005 (oral), vehicle: saline 103 % of control | endpoint: mean survival time, dose: 1.5 mg/kg/injection, schedule: Q## X003 (ip), vehicle: saline 112 % of control | endpoint: mean survival time, dose: 1.75 mg/kg/injection, schedule: Q07DX Z (oral), vehicle: saline 105 % of control | endpoint: mean survival time, dose: 2.0 mg/kg/injection, schedule: Q01DX001 (ip), vehicle: Klucel (hydroxypropylcellulose) (HPC) 110 % of control | endpoint: mean survival time, dose: 2.0 mg/kg/injection, schedule: Q01DX001 (ip), vehicle: distilled water + alcohol 107 % of control | endpoint: mean survival time, dose: 2.0 mg/kg/injection, schedule: Q01DX001 (ip), vehicle: other 107 % of control and 111 % of control | endpoint: mean survival time, dose: 2.0 mg/kg/injection, schedule: Q01DX006 (iv), vehicle: saline 115 % of control | endpoint: mean survival time, dose: 2.0 mg/kg/injection, schedule: Q04DX002 (ip), vehicle: saline + alcohol 114 % of control | endpoint: mean survival time, dose: 2.0 mg/kg/injection, schedule: Q04DX004 (ip), vehicle: saline 118 % of control | endpoint: mean survival time, dose: 2.5 mg/kg/injection, schedule: Q01DX001 (ip), vehicle: other 114 % of control | endpoint: mean survival time, dose: 3.0 mg/kg/injection, schedule: Q01DX001 (ip), vehicle: saline 112 % of control | endpoint: mean survival time, dose: 3.0 mg/kg/injection, schedule: Q03DX Z (oral), vehicle: saline 117 % of control | endpoint: mean survival time, dose: 3.0 mg/kg/injection, schedule: Q## X003 (oral), vehicle: saline 112 % of control | endpoint: mean survival time, dose: 3.12 mg/kg/injection, schedule: Q01DX001 (ip), vehicle: saline 101 % of control and 106 % of control | endpoint: mean survival time, dose: 3.5 mg/kg/injection, schedule: Q07DX Z (oral), vehicle: saline 111 % of control | endpoint: mean survival time, dose: 5.0 mg/kg/injection, schedule: Q07DX003 (ip), vehicle: saline 104 % of control | endpoint: mean survival time, dose: 6.25 mg/kg/injection, schedule: Q01DX001 (ip), vehicle: saline 108 % of control and 110 % of control | endpoint: mean survival time, dose: 6.75 mg/kg/injection, schedule: Q03HX032 (ip), vehicle: saline + alcohol 103 % of control | endpoint: mean survival time, dose: 6.75 mg/kg/injection, schedule: Q## X032 (ip), vehicle: saline + alcohol 103 % of control | endpoint: mean survival time, dose: 12.0 mg/kg/injection, schedule: Q## X Z (ip), vehicle: saline 103 % of control | endpoint: mean survival time, dose: 12.5 mg/kg/injection, schedule: Q01DX001 (ip), vehicle: saline 118 % of control | endpoint: mean survival time, dose: 16.0 mg/kg/injection, schedule: Q01DX009 (ip), vehicle: carboxymethylcellulose (CMC) 102 % of control | endpoint: mean survival time, dose: 18.0 mg/kg/injection, schedule: Q## X006 (ip), vehicle: saline 116 % of control | endpoint: mean survival time, dose: 24.0 mg/kg/injection, schedule: Q01DX005 (ip), vehicle: saline 106 % of control | endpoint: mean survival time, dose: 24.0 mg/kg/injection, schedule: Q01DX005 (oral), vehicle: saline 119 % of control | endpoint: mean survival time, dose: 24.0 mg/kg/injection, schedule: Q01DX006 (ip), vehicle: saline 109 % of control | endpoint: mean survival time, dose: 24.0 mg/kg/injection, schedule: Q01DX009 (ip), vehicle: saline 117 % of control | endpoint: mean survival time, dose: 24.0 mg/kg/injection, schedule: Q01DX009 (oral), vehicle: saline 116 % of control | endpoint: mean survival time, dose: 24.0 mg/kg/injection, schedule: Q01DX009 (sc), vehicle: saline 117 % of control | endpoint: mean survival time, dose: 36.0 mg/kg/injection, schedule: Q01DX006 (ip), vehicle: saline 98 % of control | endpoint: mean survival time, dose: 40.0 mg/kg/injection, schedule: Q04DX004 (ip), vehicle: saline 94 % of control | endpoint: mean survival time, dose: 48.0 mg/kg/injection, schedule: Q01DX001 (ip), vehicle: Klucel (hydroxypropylcellulose) (HPC) 116 % of control | endpoint: mean survival time, dose: 48.0 mg/kg/injection, schedule: Q01DX006 (ip), vehicle: saline 94 % of control | endpoint: mean survival time, dose: 48.0 mg/kg/injection, schedule: Q## X024 (ip), vehicle: saline 119 % of control | endpoint: mean survival time, dose: 62.0 mg/kg/injection, schedule: Q04DX002 (ip), vehicle: saline + alcohol 107 % of control and 111 % of control | endpoint: mean survival time, dose: 64.0 mg/kg/injection, schedule: Q01DX Z (oral), vehicle: saline 94 % of control | endpoint: mean survival time, dose: 79.0 mg/kg/injection, schedule: Q01DX001 (oral), vehicle: saline 118 % of control | endpoint: mean survival time, dose: 88.0 mg/kg/injection, schedule: Q01DX001 (ip), vehicle: other 116 % of control | endpoint: mean survival time, dose: 96.0 mg/kg/injection, schedule: Q03DX Z (oral), vehicle: saline 108 % of control | endpoint: mean survival time, dose: 112.0 mg/kg/injection, schedule: Q07DX Z (oral), vehicle: saline 106 % of control | endpoint: mean survival time, dose: 128.0 mg/kg/injection, schedule: Q01DX001 (ip), vehicle: Klucel (hydroxypropylcellulose) (HPC) 106 % of control | endpoint: mean survival time, dose: 128.0 mg/kg/injection, schedule: Q01DX001 (ip), vehicle: other 98 % of control | endpoint: mean survival time, dose: 256.0 mg/kg/injection, schedule: Q01DX001 (ip), vehicle: Klucel (hydroxypropylcellulose) (HPC) 96 % of control | endpoint: mean survival time, dose: 256.0 mg/kg/injection, schedule: Q01DX001 (ip), vehicle: other 104 % of control | endpoint: median survival time, dose: 0.75 mg/kg/injection, schedule: Q01DX009 (ip), vehicle: saline 105 % of control | endpoint: median survival time, dose: 1.25 mg/kg/injection, schedule: Q01DX009 (ip), vehicle: saline 100 % of control and 112 % of control | endpoint: median survival time, dose: 24.0 mg/kg/injection, schedule: Q01DX009 (ip), vehicle: saline 95 % of control | endpoint: median survival time, dose: 30.0 mg/kg/injection, schedule: Q01DX005 (ip), vehicle: saline + alcohol 94 % of control and 102 % of control | endpoint: median survival time, dose: 30.0 mg/kg/injection, schedule: Q01DX009 (ip), vehicle: saline + alcohol 93 % of control
